The record followed here is PubChem BioAssay AID1418 (Emory University Molecular Libraries Screening Center, 2008).

The source made the active and inactive calls. The rule behind the calls is not given here. A value given as a limit tells only on which side of the number the result lay.

The target of this assay is Induced myeloid leukemia cell differentiation protein Mcl-1 (Homo sapiens) (UniProt Q07820). Put plainly: blockers of Bid binding to Mcl-1 – biochemical, TR-FRET, dose response (AID 1418). The settings on record: Mcl-1/Bid peptide binding, TR-FRET (europium/Dy647), 2 hr.
Sequence of Induced myeloid leukemia cell differentiation protein Mcl-1 (Homo sapiens) (Q07820 whole entry, looked up): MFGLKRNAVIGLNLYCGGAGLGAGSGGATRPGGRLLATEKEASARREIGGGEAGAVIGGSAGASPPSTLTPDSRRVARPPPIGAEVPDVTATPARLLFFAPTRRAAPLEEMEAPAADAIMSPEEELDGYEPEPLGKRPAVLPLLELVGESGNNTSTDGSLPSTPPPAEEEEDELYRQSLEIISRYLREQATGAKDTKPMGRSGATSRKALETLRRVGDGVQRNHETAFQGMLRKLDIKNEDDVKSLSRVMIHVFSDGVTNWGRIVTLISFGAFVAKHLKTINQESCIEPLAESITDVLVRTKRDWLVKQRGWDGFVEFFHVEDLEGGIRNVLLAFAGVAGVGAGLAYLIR
The term IC50 denotes the midpoint of a concentration-inhibition curve. As for `Nc1nc(Nc2cccc(F)c2)nc(N2CCOCC2)c1[N+](=O)[O-]`, the IC50 is > 54 µM (inactive). The figure for `Cc1nc(C)n(CC(O)COc2ccc3c(c2)CCC3)n1` (stereo not drawn) is > 54 µM (inactive); for `NC(=S)n1[nH]c(-c2ccc([N+](=O)[O-])cc2)c(N=Nc2ccccc2[N+](=O)[O-])c1=O` it is 3.26 µM; for `OCC1CCCN(c2nc(CN3CCCCC3)nc3scc(-c4ccccc4)c23)C1` (stereo not drawn) it is > 54 µM (inactive).

As for `CCOc1cc(/C=C2\C(=O)N(c3nc(-c4ccc(Br)cc4)cs3)N=C2c2ccccc2)ccc1O`, the IC50 was 0.75 µM. The figure for `CCOC(=O)c1c(NC(=O)N/N=C/c2ccc(O)c(OC)c2)sc(C(C)=O)c1C` is 0.53 µM; for `CC(C)NC(=O)C1CCCN(S(=O)(=O)c2ccc(-n3cnnn3)cc2)C1` (stereo not drawn) it is > 54 µM (inactive). The value for `COc1ccc(C(=O)Nc2nc3cc(OC)c(OC)cc3c(=O)[nH]2)cc1` was > 54 µM (inactive); that for `NC(N)=NS(=O)(=O)c1ccc(NC(=S)NC(=O)c2sc3ccccc3c2Cl)cc1` was 1.04 µM.

For the compound `CN(CC(=O)Nc1cccc(C#N)c1)Cc1ccc(Cl)cc1`, the IC50 was > 54 µM (inactive).

On to `Cc1ccc(S(=O)(=O)N(CC(=O)N/N=C/c2cccc(Cl)c2)c2cccc3cccnc23)cc1`, for which the IC50 was > 54 µM (inactive). On to `Cc1nc(SCC(=O)Nc2cc(Cl)ccc2[N+](=O)[O-])nc(C)c1C`, for which the IC50 is > 54 µM (inactive).

As for `Cc1sc(NC(=O)c2cc(-c3ccc(Cl)cc3)nc3ccccc23)c(C(N)=O)c1C`, the IC50 is 0.92 µM. The value for `COc1ccc(N2C(=O)CC(S/C(N)=N/N=C/c3ccnc4ccccc34)C2=O)cc1` (stereo not drawn) was > 54 µM (inactive).

Consider `COc1ccc2[nH]c3c(=O)n(Cc4ccco4)cnc3c2c1`, for which the IC50 was > 54 µM (inactive). The figure for `Cc1ccc(S(=O)(=O)/N=S(\C)C(C)C)cc1` (stereo not drawn) is > 54 µM (inactive); for `COC(=O)c1ccccc1S(=O)(=O)N1CCn2cccc2C1C` (stereo not drawn) it is > 54 µM (inactive); for `O=c1c2ccccc2nc(CSc2nnnn2-c2ccccc2)n1-c1ccccc1` it is 18.7 µM. On to `C=CS(=O)(=O)c1sc(Cl)c(N2CCOCC2)c1[N+](=O)[O-]`, for which the IC50 is 1.77 µM.

For `Cn1c2ccccc2c(=O)c2c(=O)n(C3CCCCCC3)c(C3CCCCC3)nc21`, the IC50 is 2.27 µM. The figure for `O=c1c2ccccc2nc(/C=C/c2cccnc2)n1Cc1ccccc1` is 0.54 µM; for `CC(C)C(C(=O)O)N1C(=O)/C(=C/C=C/c2ccco2)SC1=S` (stereo not drawn) it is 2.35 µM; for `COc1cccc(Oc2c(C)oc3c(CN4CCCC4)c(O)ccc3c2=O)c1` it is > 54 µM (inactive). For the compound `CN(C)S(=O)(=O)c1cccc(N=c2scc(-c3ccc4c(c3)NC(=O)CO4)n2CC2CCCO2)c1` (stereo not drawn), the IC50 is > 54 µM (inactive).

`O=C(Nc1cccc(-c2csc(-c3ccccc3)n2)c1)c1cccs1`: the IC50 was > 54 µM (inactive). Consider `Cc1ccc(S(=O)(=O)N/N=C/c2cnn(C)c2C)cc1`, for which the IC50 was > 54 µM (inactive).

As to `O=C(N/N=C/c1ccco1)c1ccc(N2CCCC2=O)cc1`, the IC50 was > 54 µM (inactive).

In the case of `Cc1cccc(CN2CCc3c(OCC(=O)NCc4ccco4)cccc3C2=O)c1`, the IC50 was > 54 µM (inactive). The value for `Cc1ccc(/C=N/NC(=O)c2cc3c(ccc4ccccc43)o2)cc1[N+](=O)[O-]` was 11.1 µM; that for `COC(=O)c1c(C)[nH]c(C(=O)C(C)[N+]23CCN(CC2)CC3)c1C` (stereo not drawn) was 2.85 µM.

As for `O=C(O)CCCCCN1C(=O)/C(=C\c2ccc(-c3ccc(Cl)cc3)o2)SC1=S`, the IC50 is 16.5 µM.

On to `Nc1ccccc1Nc1ccccc1`, for which the IC50 was > 54 µM (inactive). In the case of `COC(=O)c1ccc(-c2nc3cc(Cl)c(N)cc3s2)cc1`, the IC50 is > 54 µM (inactive).

With `Cc1cc(=O)oc2cc(OCc3ccc(C(=O)OCC(=O)Nc4ccc(N(C)C)cc4)cc3)ccc12`, the IC50 is 0.7 µM. The value for `COc1cc2c(cc1OC)-c1cc(NC3CCCCCCC3)nc(=O)n1CC2` was > 54 µM (inactive); that for `Cc1ccc(-c2nnc(N3CC(C)OC(C)C3)c3ccccc23)cc1` (stereo not drawn) was > 54 µM (inactive); that for `COC(=O)c1c(C)[nH]c(C)c1C(C)=O` was 0.54 µM. As to `FC(F)(F)c1cccc(N/N=C/c2ccccc2)c1`, the IC50 was > 54 µM (inactive). As for `Cc1ccc(-c2nnc(SCC(=O)N/N=C/c3ccc(C)s3)n2-c2ccc(C)cc2)cc1`, the IC50 was > 54 µM (inactive). On to `O=C(Nc1ccc2sccc2c1)c1ccc(Cl)s1`, for which the IC50 is > 54 µM (inactive).

`Fc1ccccc1NC(=S)N1CCN(Cc2ccc3c(c2)OCO3)CC1`: the IC50 is > 54 µM (inactive). The value for `O=c1n(S(=O)(=O)c2cccc3cccnc23)c2ccccc2n1S(=O)(=O)c1cccc2cccnc12` was > 54 µM (inactive).

On to `COc1ccc(C2CC(c3ccccc3)Nc3nc(N)nn32)cc1` (stereo not drawn), for which the IC50 was > 54 µM (inactive). The figure for `O=C(CCS(=O)(=O)c1ccccc1)Nc1ccccc1-c1nc2ccccc2s1` is > 54 µM (inactive); for `COCCN1Cc2cccc(C(=O)Nc3cccc(C)c3C)c2C1=O` it is > 54 µM (inactive).

Turning to `CCCOc1ccc(C(=O)NCC(c2ccco2)N(C)C)cc1OC` (stereo not drawn), the IC50 is > 54 µM (inactive). The figure for `COc1ccc(N2CCN(C(=O)c3ccc4c(c3)OCO4)CC2)cc1` is > 54 µM (inactive); for `O=C1C(=Cc2cccn2-c2ccccc2)C(=O)c2ccccc21` it is 2.58 µM; for `O=C(Cc1cccs1)N1CCN(S(=O)(=O)c2ccccc2)CC1` it is > 54 µM (inactive).

Consider `Cc1ccc(NC(=O)CN2CCc3ccccc3C2)cc1F`, for which the IC50 was > 54 µM (inactive). For the compound `O=C(Cn1nnc(-c2ccccc2NC(=O)c2cccs2)n1)Nc1ccccc1`, the IC50 is > 54 µM (inactive). The value for `Cc1ccc(-n2cccc2/C=C2/C(=N)N3C(=NC2=O)SN=C3S(C)(=O)=O)cc1Cl` was 10.9 µM; that for `COc1ccc2nc(-n3c(O)c(C4=c5ccccc5=NC4=O)[nH]c3=S)sc2c1` was 1.38 µM; that for `CCCN(CCC)C(C(=O)Nc1cccc(OC)c1)c1ccccc1` (stereo not drawn) was > 54 µM (inactive). As for `Cc1cc(O)ccc1N/C=C(\C#N)c1nc2ccccc2o1`, the IC50 is > 54 µM (inactive). The value for `C/C(=N\NC(=O)c1cc(-c2cccc([N+](=O)[O-])c2)n[nH]1)c1ccccc1O` was 29 µM. The value for `O=C(c1cnn2c(C(F)(F)F)cc(-c3cccs3)nc12)N1CCOCC1` was > 54 µM (inactive); that for `CCOc1ccc(-c2csc3ncn(-c4ccc(OC)cc4)c(=O)c23)cc1` was > 54 µM (inactive). The value for `COc1cccc(/C=N/NC(=O)c2cc3cc([N+](=O)[O-])ccc3s2)c1O` was 1.58 µM; that for `COC(=O)c1ccc2nc(Nc3nc4ccc(F)cc4s3)sc2c1` was 0.49 µM. Take `COc1cccc(C(=O)N2CCN(Cc3ccccn3)CC2)c1OC`: the IC50 is > 54 µM (inactive). The figure for `O=C(CSc1ccccn1)Nc1ccc2c(c1)C(=O)c1ccccc1C2=O` is 1.72 µM; for `COc1cc(C(=O)Nc2ccc3c(c2)C(=O)c2ccccc2C3=O)cc(OC)c1OC` it is 9.01 µM; for `Cc1cc(N2CC(C)OC(C)C2)n2cc(-c3ccccc3)nc2n1` (stereo not drawn) it is > 54 µM (inactive).

As to `O=[N+]([O-])/C(C(Cl)=C(Cl)Cl)=C(\Nc1ccc(F)cc1)n1cncn1`, the IC50 was 17.4 µM. The entry for `COC(=O)c1ccc2c(=O)n(CCCCCC(=O)NCc3ccc4c(c3)OCO4)c(=O)[nH]c2c1` is “inactive”.

For the compound `Cc1ccc(-c2nn(CC(=O)NCc3cc(-c4nn(C)c(=O)c5ccccc45)ccc3C)c(=O)c3ccccc23)cc1`, the IC50 is 0.85 µM.

Regarding `Cc1ccc(Nc2cc(=O)n(C3CCCCC3)c(=O)[nH]2)cc1C`, the IC50 was > 54 µM (inactive). `COc1ccc(CCNc2nc(-c3cccnc3)cs2)cc1OC`: the IC50 is > 54 µM (inactive).

In the case of `O=C1NN(c2ccc(Cl)c(Cl)c2)C(=O)/C1=C/c1cccc(OC(=O)c2cccs2)c1`, the IC50 was 6.57 µM. Turning to `CCc1ccc(C(CC(=O)c2ccc(Cl)cc2)C(=O)O)cc1` (stereo not drawn), the IC50 was > 54 µM (inactive). For the compound `O=C1NC(CCc2ccccc2)C(=O)N1Cc1ccccc1Cl` (stereo not drawn), the IC50 was > 54 µM (inactive). As for `Cc1ccc(-c2cn(-c3ccccc3)c(SCC(N)=O)n2)cc1C`, the IC50 is > 54 µM (inactive). In the case of `COc1ccc(C(=O)N(Cc2ccccc2)Cc2cc3cc4c(cc3[nH]c2=O)OCCO4)cc1`, the IC50 was > 54 µM (inactive). The figure for `Fc1cc2nc(-c3ccncc3)[nH]c2cc1F` is > 54 µM (inactive); for `CSC1=N/C(=C\c2ccccc2F)C(=O)S1` it is > 54 µM (inactive). `Cc1cc2nc(-c3ccc(NC(=O)C(C)C)cc3)oc2cc1C`: the IC50 is 3.02 µM.

As for `COc1ccccc1NC(=O)c1sc2ncn(Cc3ccc(C)cc3)c(=O)c2c1C`, the concentration for half-maximal inhibition (IC50) is 7.75 µM. Regarding `CCOC(=O)C1CCN(CC(=O)Nc2c(C(=O)OC)[nH]c3cccc(Cl)c23)CC1`, the IC50 was > 54 µM (inactive). The value for `CCOc1ccccc1NC(=O)CN(C)S(=O)(=O)c1cccc2nsnc12` was > 54 µM (inactive); that for `COc1ccc(C(=O)NCc2nnc(SCC(=O)N3CCCCC3)o2)cc1OC` was > 54 µM (inactive). The figure for `COC(=O)c1cc(NC(=S)NCc2ccc(Cl)cc2)cc(C(=O)OC)c1` is > 54 µM (inactive).

Regarding `Cc1nc(COC(=O)c2cc(O)c3ccccc3c2O)cs1`, the IC50 is 0.9 µM. As to `CS(=O)(=O)NCc1ccc(C(=O)NCCOc2ccccc2)cc1`, the IC50 was > 54 µM (inactive). Consider `Cc1cccc(N2CCN(C(=S)Nc3ccc4nc(N5CCN(C)CC5)cc(C)c4c3)CC2)c1C`, for which the IC50 was 2.95 µM. Take `COC(CNC(=O)c1ccc2nc(-c3cccs3)c(-c3cccs3)nc2c1)OC`: the IC50 was > 54 µM (inactive). The value for `CN(c1cccc(NC(=O)c2ccccc2N(C)S(C)(=O)=O)c1)S(C)(=O)=O` was > 54 µM (inactive); that for `Cc1ccc(NC(=O)c2ccc3ncsc3c2)cc1S(=O)(=O)N(C)C` was “inactive”.
